# Biological target: T1, CDK2 (Homo sapiens, UniProt P24941)
# T1 construct: endogenous in cells; host or cells: MKN1 cells
# Assay: CDK2 degradation in MKN1 cells (AlphaLISA)
# Type: cell-based
# Parameters: key to CDK2 degradation 14 h: Mean external-Abs DC50 (nM): A (<100 nM); B (≥100-500 nM); C (>500-1000 nM); D (>1000 nM); E (not achieved)
# Settings: 14 h incubation; for DC50: read-out: CDK2 degradation 14 h: Mean external-Abs DC50
# How it was run: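 MKN1 cells (2e4/well) treated 14 h at 37° C with 11-point 1:5 dilutions (0.001 nM-10 μM, 0.1% DMSO). CDK2 in lysates quantified by AlphaLISA, no-cell background subtracted; DC50 from four-parameter logistic fit.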
CDK2 degradation 14 h: Average Dmax %,DC50 [nM],CDK2 degradation 14 h: Mean external-Abs DC50 (nM),Structure (SMILES)
C (C (>25% -50%)),> 1000,,Cc1cc(S(=O)(=O)N2CC3(CC(OCCN4CCC(c5ccc6c(c5)n(C)c(=O)n6C5CCC(=O)NC5=O)CC4)C3)C2)ccc1Nc1ncc2cc(Cl)c(=O)n(C3CCCC3)c2n1 (stereo not drawn) [I-418]
A (A (>75% o)),< 100,,Cc1cc(S(=O)(=O)N[C@H]2CC[C@H](OCCN3CCC(c4ccc5c(c4)n(C)c(=O)n5C4CCC(=O)NC4=O)CC3)CC2)ccc1Nc1ncc2cc(Cl)c(=O)n(C3CCCC3)c2n1 (stereo partly drawn) [I-419]
A (A (>75% o)),< 100,,Cc1cc(S(=O)(=O)NCCCN(C)C2CCN(c3cccc4c3n(C)c(=O)n4C3CCC(=O)NC3=O)CC2)ccc1Nc1ncc2cc(Cl)c(=O)n(C3CCCC3)c2n1 (stereo not drawn) [I-420]
A (A (>75% o)),< 100,,Cc1cc(S(=O)(=O)NCCO[C@H]2C[C@H](CN3CCC(c4ccc5c(c4)n(C)c(=O)n5C4CCC(=O)NC4=O)CC3)C2)ccc1Nc1ncc2cc(Cl)c(=O)n(C3CCCC3)c2n1 (stereo partly drawn) [I-429]
A (A (>75% o)),< 100,,Cc1cc(S(=O)(=O)NCCO[C@H]2CC[C@H](CN3CC(c4ccc5c(c4)n(C)c(=O)n5C4CCC(=O)NC4=O)C3)CC2)ccc1Nc1ncc2cc(Cl)c(=O)n(C3CCCC3)c2n1 (stereo partly drawn) [I-430]
A (A (>75% o)),< 100,,Cc1cc(S(=O)(=O)NCCO[C@H]2CC[C@H](CN3CCN(c4ccc5c(c4)n(C)c(=O)n5C4CCC(=O)NC4=O)CC3)CC2)ccc1Nc1ncc2cc(Cl)c(=O)n(C3CCCC3)c2n1 (stereo partly drawn) [I-432]
A (A (>75% o)),< 100,,Cc1cc(S(=O)(=O)NCCCN2CCC(OC3CCN(c4ccc5c(c4)n(C)c(=O)n5C4CCC(=O)NC4=O)CC3)CC2)ccc1Nc1ncc2cc(Cl)c(=O)n(C3CCCC3)c2n1 (stereo not drawn) [I-433]
A (A (>75% o)),< 100,,Cc1cc(S(=O)(=O)NCCOC2CCN(CC3CCN(c4ccc5c(c4)n(C)c(=O)n5C4CCC(=O)NC4=O)CC3)CC2)ccc1Nc1ncc2cc(Cl)c(=O)n(C3CCCC3)c2n1 (stereo not drawn) [I-434]
A (A (>75% o)),< 100,,Cc1cc(S(=O)(=O)NCCO[C@H]2CC[C@H](CN3CCC(c4ccc5c(c4)n(C)c(=O)n5C4CCC(=O)NC4=O)CC3)CC2)ccc1Nc1ncc2cc(Cl)c(=O)n(C(C)C)c2n1 (stereo partly drawn) [I-440]
A (A (>75% o)),< 100,,Cc1cc(S(=O)(=O)NCCO[C@H]2CC[C@H](CN3CCC(c4ccc5c(c4)n(C)c(=O)n5C4CCC(=O)NC4=O)CC3)CC2)ccc1Nc1ncc2cc(C(F)F)c(=O)n(C3CCCC3)c2n1 (stereo partly drawn) [I-441]
A (A (>75% o)),< 100,,Cc1cc(S(=O)(=O)NCCOC2CC3(C2)CN(Cc2ccc4c(c2)n(C)c(=O)n4C2CCC(=O)NC2=O)C3)ccc1Nc1ncc2ccc(=O)n(C3CCCC3)c2n1 (stereo not drawn) [I-445]
D (D (<25%)),> 1000,,Cc1cc(S(=O)(=O)N2CCC(OCC#Cc3cccc4c3n(C)c(=O)n4C3CCC(=O)NC3=O)CC2)ccc1Nc1ncc2ccc(=O)n(C3CCCC3)c2n1 (stereo not drawn) [I-447]
C (C (>25% -50%)),,E,Cc1cc(S(=O)(=O)N2CCC(CN3CCN(c4cccc5c4n(C)c(=O)n5C4CCC(=O)NC4=O)CC3)CC2)ccc1Nc1ncc2ccc(=O)n(C3CCCC3)c2n1 (stereo not drawn) [I-451]

# Second part, the compound before the results:
Structure (SMILES),CDK2 degradation 14 h: Average Dmax %,DC50 [nM],CDK2 degradation 14 h: Mean external-Abs DC50 (nM)
Cc1cc(S(=O)(=O)N2CCC(N3CCC(CN(C)c4cccc5c4n(C)c(=O)n5C4CCC(=O)NC4=O)CC3)CC2)ccc1Nc1ncc2cc(C(F)F)c(=O)n(C3CCCC34CC4)c2n1 (stereo not drawn) [I-383],A (A (>75% o)),< 100,
Cc1cc(S(=O)(=O)N2CCN(CCC3CCN(c4cccc5c4n(C)c(=O)n5C4CCC(=O)NC4=O)CC3)CC2)ccc1Nc1ncc2cc(Cl)c(=O)n(C(C)C)c2n1 (stereo not drawn) [I-393],B (B (>50% -75%)),100 to 500,
Cc1cc(S(=O)(=O)NCCN2CCN(CC3CCN(c4ccc5c(c4)n(C)c(=O)n5C4CCC(=O)NC4=O)CC3)CC2)ccc1Nc1ncc2cc(Cl)c(=O)n(C(C)C)c2n1 (stereo not drawn) [I-397],A (A (>75% o)),< 100,
Cc1cc(S(=O)(=O)NCCCN2CCN(C3CCN(c4ccc5c(c4)n(C)c(=O)n5C4CCC(=O)NC4=O)CC3)CC2)ccc1Nc1ncc2cc(Cl)c(=O)n(C(C)C)c2n1 (stereo not drawn) [I-398],A (A (>75% o)),< 100,
Cc1cc(S(=O)(=O)NCCCN2CCN(CC3CCN(c4ccc5c(c4)n(C)c(=O)n5C4CCC(=O)NC4=O)CC3)CC2)ccc1Nc1ncc2cc(Cl)c(=O)n(C(C)C)c2n1 (stereo not drawn) [I-400],A (A (>75% o)),< 100,
Cc1cc(S(=O)(=O)NCCOCCOCCNC(=O)COc2ccc(C3CCC(=O)NC3=O)cc2)ccc1Nc1ncc2cc(Cl)c(=O)n(C3CCCC3)c2n1 (stereo not drawn) [I-401],B (B (>50% -75%)),< 100,
Cc1cc(S(=O)(=O)NCCOCC2CCN(c3ccc(N4CCC(=O)NC4=O)cc3)CC2)ccc1Nc1ncc2cc(Cl)c(=O)n(C3CCCC3)c2n1 [I-409],C (C (>25% -50%)),> 1000,
Cc1cc(S(=O)(=O)NCCCCCC2CCN(c3ccc(N4CCC(=O)NC4=O)cc3)CC2)ccc1Nc1ncc2cc(Cl)c(=O)n(C3CCCC3)c2n1 [I-410],C (C (>25% -50%)),> 1000,
Cc1cc(S(=O)(=O)NCCCCC2CCN(c3ccc(N4CCC(=O)NC4=O)cc3)CC2)ccc1Nc1ncc2cc(Cl)c(=O)n(C3CCCC3)c2n1 [I-411],C (C (>25% -50%)),> 1000,
Cc1cc(S(=O)(=O)NCCCC2CCN(c3ccc(N4CCC(=O)NC4=O)cc3)CC2)ccc1Nc1ncc2cc(Cl)c(=O)n(C3CCCC3)c2n1 [I-412],C (C (>25% -50%)),> 1000,
Cc1cc(S(=O)(=O)NCCC2CCN(c3ccc(N4CCC(=O)NC4=O)cc3)CC2)ccc1Nc1ncc2cc(Cl)c(=O)n(C3CCCC3)c2n1 [I-413],B (B (>50% -75%)),> 1000,
Cc1cc(S(=O)(=O)N2CCC(CN(C)C3CCN(c4cccn5c(N6CCC(=O)NC6=O)cnc45)CC3)CC2)ccc1Nc1ncc2cc(Cl)c(=O)n(C3CCCC3)c2n1 [I-414],B (B (>50% -75%)),100 to 500,
Cc1cc(S(=O)(=O)N2CCC(CN(C)C3CCN(c4cccc5c(N6CCC(=O)NC6=O)cncc45)CC3)CC2)ccc1Nc1ncc2cc(Cl)c(=O)n(C3CCCC3)c2n1 [I-416],A (A (>75% o)),< 100,
Cc1cc(S(=O)(=O)N2CC(CN(C)C3CCN(c4cccc5c4n(C)c(=O)n5C4CCC(=O)NC4=O)CC3)C2)ccc1Nc1ncc2cc(Cl)c(=O)n(C3CCCC3)c2n1 (stereo not drawn) [I-421],B (B (>50% -75%)),100 to 500,
Cc1cc(S(=O)(=O)N2CCC(CN(C)C3CN(c4cccc5c4n(C)c(=O)n5C4CCC(=O)NC4=O)C3)CC2)ccc1Nc1ncc2cc(Cl)c(=O)n(C3CCCC3)c2n1 (stereo not drawn) [I-422],C (C (>25% -50%)),,E
Cc1cc(S(=O)(=O)N2CCC(CCN3CCN(c4cccc5c4n(C)c(=O)n5C4CCC(=O)NC4=O)CC3)CC2)ccc1Nc1ncc2cc(Cl)c(=O)n(C3CCCC3)c2n1 (stereo not drawn) [I-423],A (A (>75% o)),< 100,
Cc1cc(S(=O)(=O)NCCO[C@H]2CC[C@H](CN3CCC(c4ccc5c(c4)n(C)c(=O)n5C4CCC(=O)NC4=O)CC3)CC2)ccc1Nc1ncc2cc(C(F)F)c(=O)n(C(C)C)c2n1 (stereo partly drawn) [I-428],A (A (>75% o)),< 100,
Cc1cc(S(=O)(=O)NCCCN2CCN(CC3CCN(c4ccc5c(c4)n(C)c(=O)n5C4CCC(=O)NC4=O)CC3)CC2)ccc1Nc1ncc2cc(Cl)c(=O)n(C3CCCC3)c2n1 (stereo not drawn) [I-431],A (A (>75% o)),< 100,
Cc1cc(S(=O)(=O)N(C)CCO[C@H]2CC[C@H](CN3CCC(c4ccc5c(c4)n(C)c(=O)n5C4CCC(=O)NC4=O)CC3)CC2)ccc1Nc1ncc2cc(Cl)c(=O)n(C3CCCC3)c2n1 (stereo partly drawn) [I-435],A (A (>75% o)),< 100,
Cc1cc(S(=O)(=O)N2CCC(CN(C)C3CCN(c4cccc5c4n(C)c(=O)n5C4CCC(=O)NC4=O)CC3)CC2)ccc1Nc1ncc2cc(Cl)c(=O)n(C3CCCC34CC4)c2n1 (stereo not drawn) [I-436],A (A (>75% o)),< 100,
Cc1cc(S(=O)(=O)N2CCC(CN(C)C3CCN(c4cccc5c4n(C)c(=O)n5C4CCC(=O)NC4=O)CC3)CC2)ccc1Nc1ncc2cc(Cl)c(=O)n(C(C)C)c2n1 (stereo not drawn) [I-437],A (A (>75% o)),< 100,
Cc1cc(S(=O)(=O)N2CCC(CN(C)C3CCN(c4cccc5c4n(C)c(=O)n5C4CCC(=O)NC4=O)CC3)CC2)ccc1Nc1ncc2cc(C(F)F)c(=O)n(C3CCCC3)c2n1 (stereo not drawn) [I-438],A (A (>75% o)),< 100,
Cc1cc(S(=O)(=O)NCCO[C@H]2CC[C@H](CN3CCC(c4ccc5c(c4)n(C)c(=O)n5C4CCC(=O)NC4=O)CC3)CC2)ccc1Nc1ncc2cc(Cl)c(=O)n(C3CCCC34CC4)c2n1 (stereo partly drawn) [I-439],A (A (>75% o)),< 100,
Cc1cc(S(=O)(=O)N2CCC(CN(C)C3CCN(c4cccc5c4n(C)c(=O)n5C4CCC(=O)NC4=O)CC3)CC2)ccc1Nc1ncc2cc(Cl)c(=O)n(C3CCCC3)c2n1 (stereo not drawn) [I-442],A (A (>75% o)),< 100,
Cc1cc(S(=O)(=O)N2CCC(CN(C)C3CCN(Cc4cccc5c4n(C)c(=O)n5C4CCC(=O)NC4=O)CC3)CC2)ccc1Nc1ncc2ccc(=O)n(C3CCCC3)c2n1 (stereo not drawn) [I-449],A (A (>75% o)),< 100,
Cc1cc(S(=O)(=O)N2CCC(CN(C)C3CCN(c4cccc5c4n(C)c(=O)n5C4CCC(=O)NC4=O)CC3)CC2)ccc1Nc1ncc2ccc(=O)n(C3CCCC3)c2n1 (stereo not drawn) [I-450],A (A (>75% o)),< 100,

# From patent US20240173419A1, “CDK2 DEGRADERS AND USES THEREOF” (Kymera Therapeutics, Inc., priority 2022, published 2024)
